In patent US20110105554A1, “MEANS FOR TREATING MYOSIN-RELATED DISEASES” (KINARIS BIOMEDICALS GMBH, priority 2007, published 2011):

Legend:
Assay type in all cases: biochemical
[1] = test system: myosin-2; settings: 100 μM PBP
Procedure: Actin-sliding motility was performed at 25° C. using an Olympus IX81 inverted fluorescence microscope. Experimental flow cells were constructed using bovine serum albumin (0.5 mg/ml in assay buffer)-coated glass slides and nitrocellulose-coated coverslips. Myosins were actin affinity-purified immediately before use, to remove rigor heads^20. Sliding movement was started by adding assay buffer containing 4 mM ATP, 10 mM DTT, 0.5 mg/ml bovine serum albumin, anti-fade solution, and 0.5% methylcellulose to the flow cell. Average sliding velocity was determined from the Gaussian distribution of automatically tracked actin filaments using DiaTrack 3.0 and Origin 7.0.

[2] = target: T1, M761 (myosin-2 motor domain from D. discoideum) (Dictyostelium discoideum, UniProt P08799, C312Y/S249N); experiment: Quench-flow ATP hydrolysis (Pi-burst) with M761; settings: 50 μM PBP
T1 construct: amino acids 3 to 761 of myosin-2 from D. discoideum; His-tag (N); made in house; host or cells: D. discoideum AX3-ORF+ cells
T1 sequence (P08799 3-761 S249N/C312Y): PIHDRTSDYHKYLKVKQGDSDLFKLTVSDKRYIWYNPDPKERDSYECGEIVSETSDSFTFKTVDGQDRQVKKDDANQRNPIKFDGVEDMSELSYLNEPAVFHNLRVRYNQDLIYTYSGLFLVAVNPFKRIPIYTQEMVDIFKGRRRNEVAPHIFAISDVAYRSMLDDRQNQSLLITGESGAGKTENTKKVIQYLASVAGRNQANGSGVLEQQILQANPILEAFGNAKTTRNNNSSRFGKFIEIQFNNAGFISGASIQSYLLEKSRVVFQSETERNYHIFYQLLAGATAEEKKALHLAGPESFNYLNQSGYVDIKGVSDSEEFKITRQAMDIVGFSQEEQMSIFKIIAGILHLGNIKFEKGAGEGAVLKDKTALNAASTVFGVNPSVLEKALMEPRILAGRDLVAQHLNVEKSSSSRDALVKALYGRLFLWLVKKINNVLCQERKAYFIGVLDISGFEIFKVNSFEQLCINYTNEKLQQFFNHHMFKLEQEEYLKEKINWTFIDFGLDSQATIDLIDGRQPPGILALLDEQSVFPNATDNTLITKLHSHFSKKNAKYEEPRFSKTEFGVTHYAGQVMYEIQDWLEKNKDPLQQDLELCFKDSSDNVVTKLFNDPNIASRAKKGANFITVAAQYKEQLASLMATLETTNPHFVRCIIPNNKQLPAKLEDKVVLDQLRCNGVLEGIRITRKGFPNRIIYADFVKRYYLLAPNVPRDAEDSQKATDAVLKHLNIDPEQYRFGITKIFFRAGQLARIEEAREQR
Procedure: Effect of Pentabromopseudilin on ATP binding kinetics to DdMyosin-5b and acto-DdMyosin-5b. (FIG. 10a) Fluorescence transients obtained upon mixing 1 μM DdMyosin-5b with 10 μM mantATP in the absence and presence of 5 μM, 25 μM, 50 μM and 100 μM PBP. Mant-fluorescence was excited at 365 nm and detected after passing through a KV 389 nm cut-off filter. The fluorescent signal of mantATP binding to DdMyosin-5b in the absence of PBP follows a single exponential function (upper curve). The presence of increasing concentrations of PBP lead to reduced amplitudes of the fluorescent signals that are best fit by double exponentials. (FIG. 10b) Plot of the relative amplitudes of mantATP binding to Dd Myosin-5b at different PBP concentrations. […] (FIG. 10c) Fluorescence transients of the ATP induced dissociation of pyrene-acto-DdMyosin-5b in the absence (black curve) and presence (grey curve) of 50 μM PBP. (FIG. 10d) Quench-flow experiments of the ATP hydrolysis reaction upon mixing 5 μM M761 with 25 μM ATP in the absence (solid squares) and presence (open circles) of 50 μM PBP. The Pi-burst (kburst=7.8±0.2 sin the absence and 2.5±0.1 s^−1 in the presence of PBP) was followed by a linear steady-state phase. […]
Quench-flow Experiments. […] The relative amounts of […] and ATP were quantified using a phosphorimager (Fujix BAS1000, Fuji), the software MacBAS V 2.4, TINA V 2.09f, and Origin 7.0.

[3] = target: rabbit skeletal myosin-2 heavy meromyosin (HMM); experiment: Actin-activated ATPase activity, rabbit skeletal myosin-2 HMM; settings: 0 to 150 μM PBP, hyperbolic fit; read-out: Ki, half-maximal inhibition of actin-activated ATPase activity
Procedure: (§1) Based on the structure of the myosin-2 motor domain with bound PBP, we performed molecular modeling studies to elucidate the specificity of PBP-binding to myosins from different classes. […] To test the predictions from the modeling studies, we determined actin-activated ATPase activities in the presence of 0 to 150 μM PBP with rabbit skeletal myosin-2 heavy meromyosin (HMM), myosin-5a isolated from chicken brain, and recombinant Dictyostelium myosin class-1, 2 and 5 motor-domain constructs (FIG. 9a). […] The concentrations of PBP required for half-maximal inhibition of the different myosin motors was calculated from fitting the data to hyperbolae. […] To determine the extend to which PBP impairs the coupling between the actin- and nucleotide-binding sites of myosin, we measured the ATP turn-over rates of Dictyostelium myosin-2 and myosin-5b motor domain constructs over the range from 0 to 50 μM F-actin in the absence and presence of 25 μM PBP.
Protein preparation. Rabbit fast skeletal muscle heavy meromyosin (HMM) was prepared as described by Kron and Spudich^9. […]
Steady-state kinetics. Basal and actin-activated Mg^2+-ATPase activities were measured with the NADH-coupled assay^19 in a buffer containing 25 mM HEPES, 25 mM KCl, and 4 mM MgCl2, 0.5 mM DTT at pH 7.0 in the presence of 1 mM ATP at 25° C. […]

[4] = target: T2, Dictyostelium myosin-2 (Dictyostelium discoideum, UniProt P08799, C312Y/S249N); experiment: Actin-activated ATPase activity (NADH-coupled assay), Dictyostelium myosin-2
T2 construct: comprising amino acids 1-698, 1-765, and 1-839 respectively; made in house
T2 sequence (P08799 1-765 S249N/C312Y): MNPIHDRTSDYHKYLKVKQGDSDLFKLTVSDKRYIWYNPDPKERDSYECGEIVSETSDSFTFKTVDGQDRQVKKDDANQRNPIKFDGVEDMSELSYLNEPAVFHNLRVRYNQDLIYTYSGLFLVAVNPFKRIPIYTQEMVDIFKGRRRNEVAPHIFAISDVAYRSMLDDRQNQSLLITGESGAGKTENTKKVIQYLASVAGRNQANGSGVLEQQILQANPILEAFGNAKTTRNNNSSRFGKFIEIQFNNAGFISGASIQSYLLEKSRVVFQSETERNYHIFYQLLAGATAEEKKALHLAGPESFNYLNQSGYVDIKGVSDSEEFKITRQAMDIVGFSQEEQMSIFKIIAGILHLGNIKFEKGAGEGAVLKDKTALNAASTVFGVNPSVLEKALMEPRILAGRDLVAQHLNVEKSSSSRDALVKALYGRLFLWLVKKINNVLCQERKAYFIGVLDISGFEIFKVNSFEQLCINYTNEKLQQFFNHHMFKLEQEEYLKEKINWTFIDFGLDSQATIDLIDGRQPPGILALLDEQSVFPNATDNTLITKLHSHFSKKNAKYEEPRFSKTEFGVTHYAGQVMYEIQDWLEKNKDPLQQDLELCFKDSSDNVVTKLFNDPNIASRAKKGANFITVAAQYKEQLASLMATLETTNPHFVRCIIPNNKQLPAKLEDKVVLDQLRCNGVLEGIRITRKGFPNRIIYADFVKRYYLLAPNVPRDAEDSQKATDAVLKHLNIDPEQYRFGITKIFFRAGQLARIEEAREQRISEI
Procedure: as §1
Values for the rate of maximum ATP turnover (kcat), the concentration of F-actin at which half-maximal activation is achieved (Kapp), and the apparent second order rate constant for actin binding (kcat/Kapp) were estimated from a fit of the data to a hyperbolic function. kcat/Kapp is a direct measure of the coupling efficiency between actin and nucleotide binding and can be determined from the initial slope at F-actin concentrations much smaller than Kapp. […] ATP turn-over rates of Dictyostelium myosin-2 (◯) and Dictyostelium myosin-5b (▪) at increasing F-actin concentrations in the absence (filled symbols) and presence (open symbols) of 25 μM pentabromopseudilin (FIG. 9b):
Protein preparation. Rabbit fast skeletal muscle heavy meromyosin (HMM) was prepared as described by Kron and Spudich^9. Motor domain constructs of myosin-1E, myosin-2, and myosin-5b from Dictyostelium discoideum comprising amino acids 1-698, 1-765, and 1-839 respectively, were prepared as described previouslyl^10-12. Myosin-5a heavy meromyosin from chicken brain was provided by Dr. T. Scholz (Hannover Medical School, Germany) and F-actin was prepared as described by Lehrer and Kerwar^13.
Steady-state kinetics. Basal and actin-activated Mg^2+-ATPase activities were measured with the NADH-coupled assay^19 in a buffer containing 25 mM HEPES, 25 mM KCl, and 4 mM MgCl2, 0.5 mM DTT at pH 7.0 in the presence of 1 mM ATP at 25° C. PBP was added to the reaction mixture in the absence of nucleotide and incubated for 20 minutes before the reaction was started by the addition of ATP. NADH oxidation was followed using the change in absorption at 340 nm in a Beckman DU-800 spectrophotometer.

In the case of `Oc1c(Br)cc(Br)cc1-c1[nH]c(Br)c(Br)c1Br` [KIN-43], the “fold reduction in the average gliding velocity” value [1] is reported as 2-to-3 fold, the Pi-burst rate kburst ([2]; 5 μM M761, 25 μM ATP) is reported as 2.5 ± 0.1 s⁻¹ and the “amplitude of the burst” value ([2]; 0.95 in the absence) is reported as 0.5. For the same compound, the Ki [3] was 23 µM, the Ki [4] was 24 µM and the “fold reduction in coupling (kcat/Kapp)” value ([4]; 25 μM PBP) was 3.7 fold. The “kcat/Kapp (apparent second order rate constant for actin binding)” value ([4]; 25 μM PBP, 0 to 50 μM F-actin, 0.037 without) was 10000 M⁻¹ s⁻¹ and the “ATPase activity at 30 μM F-actin in the presence of inhibitor” value ([4]; >100 μM PBP, 0.7 s^−1 without) was 0.02 s⁻¹.
